Source: ChEMBL document CHEMBL1201862, “PubChem BioAssay data set” (2004)
Active and inactive are the calls of the source.

Tests used:
[1] = molecular target: Sphingosine 1-phosphate receptor 2 (Homo sapiens, UniProt O95136); test: Dose Response Cell Based Assay for Agonists of the S1P2 Receptor. [Related pubchem assays: 729, 736, 843 ]; format: functional
[2] = molecular target: Glyceraldehyde-3-phosphate dehydrogenase (Homo sapiens, UniProt P04406)
Bcl-2-related protein A1 [3] = molecular target: T1, Bcl-2-related protein A1 (Mus musculus, UniProt Q07440); test: Bfl-1 inhibitors blocking BH3 peptide binding, confirmation, biochemical, TR-FRET, mouse Bfl-1 (AID 621);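 note: TR-FRET binding of GST-Bfl-1 to FITC-labelled Bid peptide via terbium antibody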
T1 sequence (Q07440 whole entry): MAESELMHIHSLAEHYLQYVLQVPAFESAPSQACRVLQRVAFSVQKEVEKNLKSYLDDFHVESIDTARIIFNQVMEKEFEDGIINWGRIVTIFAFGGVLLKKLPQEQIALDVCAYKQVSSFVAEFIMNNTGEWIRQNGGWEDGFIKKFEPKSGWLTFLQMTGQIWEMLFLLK

Bcl-2-related protein A1 [4] = molecular target: T1, Bcl-2-related protein A1; test: Bfl-1 binding inhibitors, SAR follow-up, biochemical, fluorescence polarization (AID 1070)
[5] = HeLa cell cytotoxicity, dose response, cytotoxicity control for MgcRacGAP inhibitor project (AID 624300); format: functional
[6] = inhibitors of HIV Env-driven cell fusion, dose response, cherry-pick (AID 652057); format: functional, cell-based
[7] = CEM21 lymphoblast cell cytotoxicity, dose response, cytotoxicity control for viral fusion inhibitor project, CellTiter-Glo luminescence, cherry-picked (AID 652042); format: functional, cell-based;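 note: potency for signal decrease meaning cytotoxicity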
[8] = Vero cell cytotoxicity, dose response, cytotoxicity control for Vif-APOBEC3G degradation inhibitor project, Vero cells (AID 1117358); format: functional; settings: Human immunodeficiency virus 1, Vero
[9] = molecular target: E3 ubiquitin-protein ligase Mdm2 (Homo sapiens, UniProt Q00987); test: enhancers of MDM2-luciferase reporter signal, concentration-effect titration, project on inhibitors of MDM2 ubiquitin ligase, cellular assay, luminescent readout, 384-well plate format (AID 1394); format: functional;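 note: MDM2 E3 inhibitors raise luminescence so EC50 is for signal enhancement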
[10] = tested on: Streptococcus sp. 'group A'; test: growth inhibition of control SK(-) GAS strain, dose response, counter-screen for streptokinase expression inhibitor project, luminescence, kanamycin, BacTiterGlo, confirmation (AID 1900); format: functional, organism-based
Streptokinase A = molecular target: T2, Streptokinase A (Streptococcus pyogenes serotype M1, UniProt P10520); test: S. pyogenes streptokinase expression inhibitors, potency, dose response, plasminogen activation absorbance, OD405 (AID 1914); format: functional, Streptococcus pyogenes M1 GAS;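 note: secreted streptokinase activity via plasminogen activation per viability signal from cell pellet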
T2 sequence (P10520 whole entry): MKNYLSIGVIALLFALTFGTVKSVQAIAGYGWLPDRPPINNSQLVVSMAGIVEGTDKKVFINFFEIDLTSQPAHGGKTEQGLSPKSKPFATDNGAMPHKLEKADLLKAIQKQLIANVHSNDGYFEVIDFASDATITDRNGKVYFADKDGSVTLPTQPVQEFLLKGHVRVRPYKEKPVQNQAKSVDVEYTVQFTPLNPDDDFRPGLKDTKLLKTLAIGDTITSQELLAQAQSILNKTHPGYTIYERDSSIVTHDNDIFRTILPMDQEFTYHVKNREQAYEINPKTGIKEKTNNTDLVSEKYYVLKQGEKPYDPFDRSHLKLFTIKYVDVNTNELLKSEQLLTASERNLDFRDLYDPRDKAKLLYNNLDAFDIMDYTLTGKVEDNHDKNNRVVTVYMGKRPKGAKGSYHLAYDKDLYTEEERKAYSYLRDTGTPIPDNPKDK

Streptococcus = test: Group A Streptococcus viability loss, dose response, counter-screen for streptokinase expression inhibitor project, luminescence, BacTiterGlo (AID 1915); format: functional, organism-based;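 note: potency for reduction of bacterial viability or growth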
[11] = molecular target: T3, Carboxy-terminal domain RNA polymerase II polypeptide A small phosphatase 1 (Homo sapiens, UniProt Q9GZU7); test: inhibitors of CTDSP1, concentration-response testing, biochemical assay, absorbance-based, actives from ultra-high-throughput screening (AID 540297); format: functional
T3 sequence (Q9GZU7 whole entry): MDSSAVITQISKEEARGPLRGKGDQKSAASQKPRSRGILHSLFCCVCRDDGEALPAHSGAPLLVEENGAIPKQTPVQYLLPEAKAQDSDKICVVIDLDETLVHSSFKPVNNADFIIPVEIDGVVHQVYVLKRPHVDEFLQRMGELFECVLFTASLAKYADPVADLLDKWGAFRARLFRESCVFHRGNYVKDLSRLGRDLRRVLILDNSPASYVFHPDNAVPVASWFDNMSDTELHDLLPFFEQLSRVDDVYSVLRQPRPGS

[12] = molecular target: Protein-tyrosine kinase 2-beta (Homo sapiens, UniProt Q14289);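 note: potency of inhibitors of PYK2 kinase phosphorylation of poly-GT substrate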
Cytochrome P450 2C19 = Cytochrome P450 2C19 (Homo sapiens, UniProt P33261); test: Cytochrome panel assay with activity outcomes. Panel member name: p450-cyp2c19 Compounds with AC50 equal or less than 10 uM are considered active; format: functional; settings: read-out: AC50
Cytochrome P450 1A2 = molecular target: T4, Cytochrome P450 1A2 (Homo sapiens, UniProt P05177);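 note: PubChem cytochrome P450 panel assay, CYP1A2 panel member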
T4 sequence (P05177 whole entry): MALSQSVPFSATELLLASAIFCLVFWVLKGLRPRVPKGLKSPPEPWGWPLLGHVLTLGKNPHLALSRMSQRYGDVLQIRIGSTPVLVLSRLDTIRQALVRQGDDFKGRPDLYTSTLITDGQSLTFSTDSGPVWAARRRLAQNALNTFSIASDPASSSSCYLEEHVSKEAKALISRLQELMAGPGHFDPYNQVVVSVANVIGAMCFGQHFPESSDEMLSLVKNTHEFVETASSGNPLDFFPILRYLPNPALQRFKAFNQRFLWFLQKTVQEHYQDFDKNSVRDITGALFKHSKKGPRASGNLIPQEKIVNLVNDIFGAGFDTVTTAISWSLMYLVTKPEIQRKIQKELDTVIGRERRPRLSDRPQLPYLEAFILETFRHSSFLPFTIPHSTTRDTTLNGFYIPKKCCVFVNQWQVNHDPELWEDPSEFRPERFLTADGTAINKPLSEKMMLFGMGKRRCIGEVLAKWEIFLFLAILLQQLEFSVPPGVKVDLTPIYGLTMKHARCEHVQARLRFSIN

Cytochrome P450 2C9 = Cytochrome P450 2C9 (Homo sapiens, UniProt P11712)
Cytochrome P450 3A4 = Cytochrome P450 3A4 (Homo sapiens, UniProt P08684);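 note: CYP3A4 tested as one member of a cytochrome P450 panel screen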
Cytochrome P450 3A4, sequence (P08684 whole entry): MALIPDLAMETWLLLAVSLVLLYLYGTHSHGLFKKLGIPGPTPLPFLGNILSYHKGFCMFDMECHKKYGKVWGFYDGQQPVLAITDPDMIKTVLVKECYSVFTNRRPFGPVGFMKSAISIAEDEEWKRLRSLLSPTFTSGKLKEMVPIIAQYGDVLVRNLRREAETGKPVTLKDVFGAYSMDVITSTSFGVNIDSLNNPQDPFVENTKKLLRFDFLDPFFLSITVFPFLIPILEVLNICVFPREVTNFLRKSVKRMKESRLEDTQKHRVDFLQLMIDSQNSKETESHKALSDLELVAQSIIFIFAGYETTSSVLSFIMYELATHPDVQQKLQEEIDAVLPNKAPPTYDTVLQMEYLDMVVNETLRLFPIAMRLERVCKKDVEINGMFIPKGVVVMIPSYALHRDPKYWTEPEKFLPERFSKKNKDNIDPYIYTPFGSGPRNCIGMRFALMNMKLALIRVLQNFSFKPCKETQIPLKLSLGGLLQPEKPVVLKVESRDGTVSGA

Sphingosine 1-phosphate receptor 2, sequence (O95136 whole entry): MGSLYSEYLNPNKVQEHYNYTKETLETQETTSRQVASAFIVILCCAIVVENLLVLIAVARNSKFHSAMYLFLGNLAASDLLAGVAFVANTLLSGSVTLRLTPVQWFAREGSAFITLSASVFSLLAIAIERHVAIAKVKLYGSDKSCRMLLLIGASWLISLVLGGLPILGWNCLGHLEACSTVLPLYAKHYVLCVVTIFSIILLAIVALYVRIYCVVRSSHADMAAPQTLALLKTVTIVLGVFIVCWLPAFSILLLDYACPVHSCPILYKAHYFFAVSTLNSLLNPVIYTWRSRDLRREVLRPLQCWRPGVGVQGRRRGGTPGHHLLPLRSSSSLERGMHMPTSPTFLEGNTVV
E3 ubiquitin-protein ligase Mdm2, sequence (Q00987 whole entry): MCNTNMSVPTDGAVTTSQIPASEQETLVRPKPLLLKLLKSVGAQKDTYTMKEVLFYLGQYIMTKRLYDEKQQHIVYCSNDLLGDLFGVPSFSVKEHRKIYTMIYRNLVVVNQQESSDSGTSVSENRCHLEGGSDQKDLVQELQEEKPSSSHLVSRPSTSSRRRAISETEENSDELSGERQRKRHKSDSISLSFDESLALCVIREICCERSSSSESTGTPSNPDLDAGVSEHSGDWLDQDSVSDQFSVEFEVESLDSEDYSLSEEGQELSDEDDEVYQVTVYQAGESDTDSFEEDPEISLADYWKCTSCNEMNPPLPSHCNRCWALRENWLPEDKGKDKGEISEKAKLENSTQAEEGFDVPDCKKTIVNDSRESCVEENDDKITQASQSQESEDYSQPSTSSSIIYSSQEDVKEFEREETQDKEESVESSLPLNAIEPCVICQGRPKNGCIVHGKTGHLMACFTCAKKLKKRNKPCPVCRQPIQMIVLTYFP
Cytochrome P450 2C9, sequence (P11712 whole entry): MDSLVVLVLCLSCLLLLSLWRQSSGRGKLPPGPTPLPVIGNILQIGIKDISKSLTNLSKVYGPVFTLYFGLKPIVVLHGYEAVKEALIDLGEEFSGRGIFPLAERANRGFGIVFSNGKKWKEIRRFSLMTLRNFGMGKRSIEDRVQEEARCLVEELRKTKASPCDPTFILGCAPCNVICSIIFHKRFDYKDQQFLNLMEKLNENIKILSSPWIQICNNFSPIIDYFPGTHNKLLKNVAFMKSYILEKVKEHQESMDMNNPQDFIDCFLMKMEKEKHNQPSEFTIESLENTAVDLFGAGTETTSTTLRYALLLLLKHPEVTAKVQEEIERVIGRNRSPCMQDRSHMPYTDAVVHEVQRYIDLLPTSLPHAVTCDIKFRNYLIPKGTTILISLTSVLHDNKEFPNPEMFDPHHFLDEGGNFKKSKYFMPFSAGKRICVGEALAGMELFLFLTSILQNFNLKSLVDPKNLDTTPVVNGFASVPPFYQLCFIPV
Glyceraldehyde-3-phosphate dehydrogenase, sequence (P04406 whole entry): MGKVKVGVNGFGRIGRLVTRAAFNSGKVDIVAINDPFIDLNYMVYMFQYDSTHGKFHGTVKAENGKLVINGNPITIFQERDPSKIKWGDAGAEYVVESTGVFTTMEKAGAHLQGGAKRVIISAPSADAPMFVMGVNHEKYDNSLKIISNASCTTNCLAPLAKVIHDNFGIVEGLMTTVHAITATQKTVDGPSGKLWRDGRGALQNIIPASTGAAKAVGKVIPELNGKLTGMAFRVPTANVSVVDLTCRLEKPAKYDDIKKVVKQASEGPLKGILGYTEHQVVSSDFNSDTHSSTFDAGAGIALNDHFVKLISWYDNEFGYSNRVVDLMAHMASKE
Protein-tyrosine kinase 2-beta, sequence (Q14289 whole entry): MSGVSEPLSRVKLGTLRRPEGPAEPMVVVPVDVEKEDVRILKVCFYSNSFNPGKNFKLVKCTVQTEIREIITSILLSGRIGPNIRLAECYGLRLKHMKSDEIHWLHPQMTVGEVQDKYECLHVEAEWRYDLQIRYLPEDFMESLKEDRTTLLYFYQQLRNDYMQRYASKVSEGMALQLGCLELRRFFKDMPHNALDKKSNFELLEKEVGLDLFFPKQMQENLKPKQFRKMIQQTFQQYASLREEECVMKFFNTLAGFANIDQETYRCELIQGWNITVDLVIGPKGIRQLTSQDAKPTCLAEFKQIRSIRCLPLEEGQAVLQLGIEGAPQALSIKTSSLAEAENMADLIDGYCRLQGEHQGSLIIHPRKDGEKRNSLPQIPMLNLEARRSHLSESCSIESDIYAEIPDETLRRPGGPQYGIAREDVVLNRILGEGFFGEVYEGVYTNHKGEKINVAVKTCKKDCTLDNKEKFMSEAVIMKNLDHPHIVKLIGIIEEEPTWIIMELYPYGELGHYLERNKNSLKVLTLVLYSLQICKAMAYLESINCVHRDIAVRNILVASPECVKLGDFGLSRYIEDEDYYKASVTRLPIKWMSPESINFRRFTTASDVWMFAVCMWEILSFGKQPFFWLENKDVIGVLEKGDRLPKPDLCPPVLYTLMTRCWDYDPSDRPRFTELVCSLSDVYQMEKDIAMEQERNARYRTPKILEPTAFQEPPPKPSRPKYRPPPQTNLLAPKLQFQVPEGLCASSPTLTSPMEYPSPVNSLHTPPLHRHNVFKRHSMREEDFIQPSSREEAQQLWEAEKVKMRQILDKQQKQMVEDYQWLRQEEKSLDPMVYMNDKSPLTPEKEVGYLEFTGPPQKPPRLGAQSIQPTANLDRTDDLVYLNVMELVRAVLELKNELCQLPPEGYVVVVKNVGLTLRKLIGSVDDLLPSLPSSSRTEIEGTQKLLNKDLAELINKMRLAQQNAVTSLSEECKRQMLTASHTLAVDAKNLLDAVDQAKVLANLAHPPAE
Cytochrome P450 2C19, sequence (P33261 whole entry): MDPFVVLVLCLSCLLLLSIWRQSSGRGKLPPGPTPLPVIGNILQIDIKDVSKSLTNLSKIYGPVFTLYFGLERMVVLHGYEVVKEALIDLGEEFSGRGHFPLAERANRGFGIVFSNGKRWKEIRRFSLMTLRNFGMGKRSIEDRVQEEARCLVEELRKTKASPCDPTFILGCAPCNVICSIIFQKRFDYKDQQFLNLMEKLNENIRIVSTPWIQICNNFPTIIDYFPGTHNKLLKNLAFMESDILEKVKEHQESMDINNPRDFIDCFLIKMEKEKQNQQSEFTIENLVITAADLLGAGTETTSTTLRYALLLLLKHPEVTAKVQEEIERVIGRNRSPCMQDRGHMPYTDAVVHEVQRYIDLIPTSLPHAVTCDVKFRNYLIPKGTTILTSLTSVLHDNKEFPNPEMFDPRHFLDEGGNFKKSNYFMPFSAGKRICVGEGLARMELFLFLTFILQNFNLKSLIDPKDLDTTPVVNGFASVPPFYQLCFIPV

For `Cc1cc(-c2nnc(SCC(=O)NC3CCCC3)o2)no1`, the EC50 [1] was > 50 µM (not active).

With `O=C1C(Cl)=C(N2CCN(Cc3ccc4c(c3)OCO4)CC2)C(=O)N1c1ccc([N+](=O)[O-])cc1` the IC50 [2] was > 100 µM (not active), the IC50 (Bcl-2-related protein A1 [3]) was 4.59 µM (active) and the IC50 (Bcl-2-related protein A1 [4]) was 4.68 µM (active).

For `COc1ccc2[nH]c3c(N4CCC(O)(c5cccc(C(F)(F)F)c5)CC4)ncnc3c2c1`, the CC50 [5] was 33 µM (active), the AC50 [6] was 9.77 µM (active) and the AC50 [7] was 7.3 µM (active). The CC50 [8] was 29.4 µM (active).

In the case of `Cc1ccsc1C1Nc2ccc3ncccc3c2C2=C1C(=O)CCC2` (stereo not drawn), the EC50 [9] was 25 µM (not active).

For `COc1ccc(Cn2c(-c3ccco3)nc3oc4cc(OC)ccc4c(=O)c3c2=O)cc1`, the EC50 [10] was 25.5 µM (active), the EC50 (Streptokinase A) was > 150 µM (not active) and the EC50 (Streptococcus) was > 150 µM (not active). For the same compound, the EC50 [1] was > 50 µM (not active) and the IC50 [11] was 7.58 µM (active).

For `O=C1C(Cl)=C(N2CCN(c3ccc(F)cc3)CC2)C(=O)N1c1ccc(Cl)c(Cl)c1`, the IC50 (Bcl-2-related protein A1 [3]) was 19.1 µM (active) and the IC50 (Bcl-2-related protein A1 [4]) was > 100 µM (not active).

With `C=CCn1c(P(=O)(O)c2ccccc2)nc2ccccc21` the IC50 [12] was 26.6 µM (not active), the AC50 (Cytochrome P450 2C19) was 6.31 µM (inconclusive) and the AC50 (Cytochrome P450 1A2) was 15.8 µM (inconclusive). For the same compound, the AC50 (Cytochrome P450 2C9) was 25.1 µM (inconclusive) and the AC50 (Cytochrome P450 3A4) was “inconclusive”.

For `COC(=O)C(C(=O)Nc1ccc(OC)cc1)C1CCCCCC1` (stereo not drawn), the CC50 [8] was > 40 µM (active).

With `NC(=O)c1c(NC(=O)C2CCCO2)sc2c1CCCC2` (stereo not drawn) the EC50 [9] was 7.26 µM (not active).
